Some test systems named below: SF-295 CNS; KM12 colon; UO-31 renal; SK-MEL-2 melanoma; CAKI-1 renal; A549 NSCLC; EKVX NSCLC; MDA-MB-435.
Holding throughout (assay): DTP human tumour cell line panel, 48 h

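Tested at 5 concentrations; 48 h exposure; 96-well plates; endpoints linearly interpolated, else capped at highest concentration. The concentration for 50% growth inhibition is given as GI50. The concentration for full growth arrest is given as TGI.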

Take `Cc1ccc2c(O)c(O)cc(NC(C)CCCN)c2n1` (configuration not stated): the GI50 in the assay on SF-295 CNS is greater than 48 µM; in the assay on KM12 colon, 25 µM; in the assay on UO-31 renal it was 7.77 µM; in the assay with SK-MEL-2 melanoma, greater than 45.9 µM; with CAKI-1 renal, 21.8 µM; in the assay on A549 NSCLC it was 24.3 µM. Further, the figures for the GI50 in the assay on EKVX NSCLC and in the assay with MDA-MB-435 were 25.3 µM and 19.4 µM, respectively. Also, the TGI with SF-295 CNS is greater than 74.2 µM; with KM12 colon it was 98.9 µM; with UO-31 renal, 43 µM; in the assay with SK-MEL-2 melanoma, greater than 91.9 µM; in the assay on CAKI-1 renal, greater than 54.7 µM; in the assay with A549 NSCLC, greater than 100 µM. Moreover, the TGI was greater than 83.1 µM in the assay on EKVX NSCLC and 38.3 µM in the assay with MDA-MB-435.
On to `CCOC(=O)/C=C/C(C(=O)/C=C/c1ccc(O)c(OC)c1)=C(O)\C=C\c1ccc(O)c(OC)c1`, for which the GI50 in the assay on SF-295 CNS is 14.6 µM; in the assay with KM12 colon, 3.96 µM; with UO-31 renal, 16.9 µM; in the assay with SK-MEL-2 melanoma, 5.17 µM; with CAKI-1 renal, 4.5 µM; in the assay on A549 NSCLC, 4.84 µM. The GI50 in the assay on EKVX NSCLC is 5.75 µM; in the assay on MDA-MB-435, 3.29 µM. The TGI in the assay with SF-295 CNS was 47 µM; in the assay with KM12 colon, greater than 100 µM; with UO-31 renal, 49.1 µM; in the assay on SK-MEL-2 melanoma it was 26.2 µM; with CAKI-1 renal, 17.5 µM; with A549 NSCLC, 24.5 µM. The TGI in the assay on EKVX NSCLC amounted to 42 µM; with MDA-MB-435 it was 9.31 µM.
Turning to `CCN1c2ccccc2C(Cl)(c2ccc(N(C)C)cc2)c2ccccc21`, the GI50 in the assay on SF-295 CNS is 21.7 µM; in the assay on KM12 colon, 4.41 µM; in the assay with UO-31 renal, 1.91 µM; with CAKI-1 renal it was 14.5 µM; in the assay on A549 NSCLC, 4.34 µM; in the assay on EKVX NSCLC, 7.98 µM. Further, the GI50 in the assay on MDA-MB-435 is 3.34 µM. Further, the concentration for total growth inhibition (TGI) in the assay on SF-295 CNS was 73.8 µM; in the assay with KM12 colon, 15.6 µM; in the assay with UO-31 renal, 5.27 µM; with CAKI-1 renal, 49.4 µM; in the assay on A549 NSCLC, 24.5 µM; in the assay on EKVX NSCLC, greater than 100 µM. Also, in the assay with MDA-MB-435, the TGI amounted to 14 µM.
As for `C=C1C(=O)O[C@H]2[C@H]1CC/C(COC(=O)NCCc1c[nH]c3ccc(OC)cc13)=C\CC[C@@]1(C)O[C@@H]21`, the GI50 in the assay on SF-295 CNS was 10.3 µM; with KM12 colon it was 6.49 µM; with UO-31 renal it was 1.46 µM; in the assay with SK-MEL-2 melanoma it was 1.84 µM; with CAKI-1 renal, 1.49 µM; in the assay with A549 NSCLC, 4.58 µM. Moreover, the figures for the GI50 in the assay on EKVX NSCLC and in the assay with MDA-MB-435 were 1.94 µM and 1.8 µM, respectively. Also, the TGI with SF-295 CNS amounted to 22.2 µM; in the assay on KM12 colon it was 23.2 µM; in the assay with UO-31 renal, 2.77 µM; in the assay on SK-MEL-2 melanoma it was 4.18 µM; in the assay with CAKI-1 renal it was 3.32 µM; in the assay on A549 NSCLC, 18.4 µM. In addition, the values for the TGI in the assay with EKVX NSCLC and in the assay on MDA-MB-435 were 5.45 µM and 4.06 µM, respectively.
As to `CN1CCN(Cc2ccc(NC(=O)c3ccc(C#Cc4c(N)ncc5ccc(F)cc45)cc3)cc2C(F)(F)F)CC1`, the GI50 in the assay on SF-295 CNS is 1.04 µM; in the assay with KM12 colon, 0.733 µM; in the assay with UO-31 renal, 0.967 µM; with SK-MEL-2 melanoma, 1.08 µM; in the assay with CAKI-1 renal, 1.97 µM; in the assay with A549 NSCLC, 1.05 µM. In addition, the GI50 is 0.94 µM in the assay with EKVX NSCLC and 0.874 µM in the assay with MDA-MB-435. The TGI came out at 2.04 µM in the assay with SF-295 CNS; 1.52 µM with KM12 colon; 2.26 µM in the assay with UO-31 renal; 2.04 µM in the assay with SK-MEL-2 melanoma; 7.55 µM in the assay on CAKI-1 renal; 2.19 µM in the assay with A549 NSCLC. For the same compound, the figures for the TGI in the assay on EKVX NSCLC and with MDA-MB-435 were 1.85 µM and 1.59 µM, respectively.
As for `O=Nc1ccc2ccccc2c1O`, the GI50 in the assay on SF-295 CNS was 7.78 µM; with KM12 colon, 6.23 µM; with UO-31 renal it was 4.99 µM; with SK-MEL-2 melanoma it was 2.34 µM; in the assay on CAKI-1 renal, 3.14 µM; with A549 NSCLC it was 6.2 µM. The results for the GI50 with EKVX NSCLC and with MDA-MB-435 were 8.61 µM and 2.31 µM, respectively. Moreover, the TGI in the assay with SF-295 CNS came out at 25.4 µM; in the assay with KM12 colon it was 19.2 µM; in the assay on UO-31 renal, 21.7 µM; in the assay with SK-MEL-2 melanoma, 5.29 µM; with CAKI-1 renal it was 19.3 µM; in the assay with A549 NSCLC, 19.6 µM. The TGI in the assay with EKVX NSCLC is 22.6 µM; in the assay with MDA-MB-435, 4.53 µM.
Take `COc1ccccc1C#Cc1ccccc1C#CCCCCCC#Cc1ccccc1C#Cc1ccccc1OC`: the GI50 in the assay with SF-295 CNS was greater than 100 µM; in the assay on KM12 colon it was 75 µM; with UO-31 renal it was greater than 100 µM; in the assay with SK-MEL-2 melanoma, greater than 100 µM; in the assay with CAKI-1 renal it was 41.2 µM; with A549 NSCLC, greater than 100 µM. The GI50 is greater than 100 µM in the assay with EKVX NSCLC and 83.8 µM in the assay on MDA-MB-435. Also, the TGI in the assay with SF-295 CNS, with KM12 colon, in the assay on UO-31 renal, in the assay on SK-MEL-2 melanoma, in the assay on CAKI-1 renal and in the assay with A549 NSCLC was greater than 100 µM each time. In addition, the TGI in the assay with EKVX NSCLC and with MDA-MB-435 was greater than 100 µM throughout.
Take `COc1ccc2nc3cc(Cl)ccc3c(NCCCNCCC(C)O)c2c1` (configuration not stated): the GI50 is 0.276 µM in the assay on SF-295 CNS; 0.408 µM with KM12 colon; 1.11 µM with UO-31 renal; 0.704 µM in the assay on SK-MEL-2 melanoma; 0.735 µM in the assay with CAKI-1 renal; 0.422 µM with A549 NSCLC. The GI50 in the assay on EKVX NSCLC was 0.473 µM; in the assay with MDA-MB-435, 0.504 µM. The TGI in the assay on SF-295 CNS came to 1.63 µM; in the assay with KM12 colon, 1.98 µM; with UO-31 renal, 3.27 µM; in the assay with SK-MEL-2 melanoma it was 2.25 µM; in the assay on CAKI-1 renal, 3.43 µM; with A549 NSCLC, 2.12 µM. In addition, the TGI in the assay with EKVX NSCLC was found to be 2.41 µM; with MDA-MB-435 it was 1.79 µM.
In the case of `Cc1ccc(SC2=CC(=O)c3nc4ccccc4c4ccnc2c34)cc1`, the GI50 in the assay with SF-295 CNS is greater than 100 µM; in the assay with KM12 colon, 20.9 µM; in the assay on UO-31 renal, 15.5 µM; in the assay on SK-MEL-2 melanoma, 21.2 µM; with CAKI-1 renal it was 25.5 µM; in the assay on A549 NSCLC it was greater than 79.8 µM. Further, the GI50 is 35 µM in the assay with EKVX NSCLC and 16.3 µM in the assay with MDA-MB-435. The TGI in the assay on SF-295 CNS was greater than 100 µM; in the assay on KM12 colon it was 47.5 µM; with UO-31 renal, 29.7 µM; in the assay on SK-MEL-2 melanoma, 58.2 µM; with CAKI-1 renal, 63.8 µM; with A549 NSCLC, greater than 100 µM. The figures for the TGI in the assay with EKVX NSCLC and in the assay on MDA-MB-435 were greater than 100 µM and 31.2 µM, respectively.

The values are drawn from PubChem BioAssay (NCI).
